From US20240373851A1, “PEST CONTROL COMPOSITION AND PEST CONTROL METHOD” (SUMITOMO CHEMICAL COMPANY, LIMITED, priority 2021, published 2024)

How the values were obtained:
Type in all cases: in vivo
[1] = test system: German cockroaches (Blattella germanica); experiment: Test Example 11: control test against German cockroaches, spray in chamber; conditions: adult German cockroaches; 1.5 mL sprayed; concentration [%]: isocycloseram 0.01, imiprothrin 0.01, permethrin 0.05, alone or mixed; 120 minutes after spraying
Experimental: Next, the usefulness of the inventive composition for controlling pests will be indicated by Test Examples. In general, the control effect to be expected when treated with a mixture obtained by mixing given two or three types of active ingredient compounds is determined by the Colby's calculation equation represented by the following [Equation 1] and [Equation 2].
[formula] • P: moribund and mortal rates (%) when treated with an active ingredient compound X in the concentration of m [ppm] • Q: moribund and mortal rates (%) when treated with an active ingredient compound Y in the concentration of n [ppm] • EA: moribund and mortal rates (%) when treated with an active ingredient compound X in the concentration of m [ppm] and an active ingredient compound Y in the concentration of n [ppm] (hereinafter referred to as expected value A) […]
Regarding the synergistic effect of three types of the active ingredient compounds, in case where the moribund and mortal rates (%) when actually treated with a mixture obtained by mixing three types of the active ingredient compounds exceed the expected value A calculated by using the moribund and mortal rates (%) when actually treated with a mixture obtained by mixing two types of the active ingredient compounds among three types thereof, and the moribund and mortal rates (%) calculated when actually treated the remaining one type of the active ingredient compound, or the expected value B (%) calculated from the moribund and mortal rates (%) when actually treated with each of three types of the active ingredient compounds alone, it was determined that the synergistic effect exists. […]

[2] = test system: German cockroaches (Blattella germanica); experiment: Test Example 5: control test against German cockroaches, spray in chamber; conditions: adult German cockroaches; 1.5 mL sprayed; concentration [%]: nicofluprole 0.01, imiprothrin 0.01, cyfluthrin 0.0002, alone or mixed; 45 minutes after spraying
Description: (§1) Next, the usefulness of the inventive composition for controlling pests will be indicated by Test Examples.
(§2) (hereinafter referred to as expected value A)
(§3) (hereinafter referred to as expected value B)
(§4) In a plastic cup (diameter: 12.4 cm, height: 10.2 cm) lined with a filter paper, ten adult German cockroaches (Blattella germanica) (five males and five females each) or eleven adult German cockroaches were released, and the plastic cup was placed in the center of the bottom of a box-shaped chamber (46 cm×46 cm×70 cm in height). From the height of 60 cm, 1.5 mL of each of formulations prepared by dissolving a single agent of any one of nicofluprole, imiprothrin and cyfluthrin, or a mixed agent of two or more thereof in a mixture of isopropyl alcohol and Isopar M at a mixing ratio of 1:9 was sprayed under a spray pressure of 0.041 MPa. After a lapse of 45 minutes from spraying, the number of dead and moribund individuals was examined, and moribund and mortal rates (%) were determined by the above equation 3. The test was performed through two replicates. Dead individuals are completely immobile individuals, and moribund individuals are individuals who cannot get up when turned on their backs.

[3] = test system: German cockroaches (Blattella germanica); experiment: Test Example 3: control test against German cockroaches, spray in chamber; conditions: adult German cockroaches; 1.5 mL sprayed; concentration [%]: broflanilide 0.02, imiprothrin 0.01, cyfluthrin 0.0016, alone or mixed; 420 minutes after spraying
Description: as §1, §2, §3
as §4, with “each)” for “each) or eleven adult German cockroaches”, “broflanilide,” for “nicofluprole,”, “420” for “45”

[4] = test system: German cockroaches (Blattella germanica); experiment: Test Example 9: control test against German cockroaches, spray in chamber; conditions: adult German cockroaches; 1.5 mL sprayed; concentration [%]: broflanilide 0.02, imiprothrin 0.01, permethrin 0.05, alone or mixed; 420 minutes after spraying
Description: as §1, §2, §3
as §4, with “each)” for “each) or eleven adult German cockroaches”, “broflanilide,” for “nicofluprole,”, “permethrin,” for “cyfluthrin,”, “420” for “45”

C#CCN1CC(=O)N(COC(=O)[C@@H]2C(C=C(C)C)C2(C)C)C1=O (mixture of isomers) [Imiprothrin, imiprothrin] was tested, and the “Moribund and mortal rates [%] after 120 minutes” value [1] was 15%, the “Moribund and mortal rates [%] after 45 minutes” value [2] was 65% and the “Moribund and mortal rates [%] after 420 minutes” value [3] was 15%. For the same molecule, the “Moribund and mortal rates [%] after 420 minutes” value [4] was 15%.
